From patent US20110224135A1 (priority 2008, published 2011)

How the values were obtained:
[1] = rat, in vivo
[2] = target: T1, human Kv1.7 channel (human), Q96RP8; test: cell-based or functional assay
T1 chain: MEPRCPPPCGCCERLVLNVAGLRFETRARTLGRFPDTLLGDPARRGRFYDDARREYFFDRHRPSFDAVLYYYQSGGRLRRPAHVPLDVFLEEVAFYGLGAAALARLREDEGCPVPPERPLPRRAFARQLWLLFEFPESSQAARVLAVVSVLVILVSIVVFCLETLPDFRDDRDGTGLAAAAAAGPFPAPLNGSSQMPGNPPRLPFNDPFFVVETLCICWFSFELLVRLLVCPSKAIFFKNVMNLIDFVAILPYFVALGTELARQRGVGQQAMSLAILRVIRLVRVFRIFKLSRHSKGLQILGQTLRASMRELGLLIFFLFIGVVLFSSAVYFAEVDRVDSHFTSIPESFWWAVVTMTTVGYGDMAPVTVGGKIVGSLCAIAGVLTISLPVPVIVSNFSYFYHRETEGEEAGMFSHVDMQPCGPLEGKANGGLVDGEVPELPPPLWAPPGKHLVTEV

[3] = target: T2, mouse Kv1.7 channel (mouse), Q17ST2; test: cell-based or functional assay
T2 chain: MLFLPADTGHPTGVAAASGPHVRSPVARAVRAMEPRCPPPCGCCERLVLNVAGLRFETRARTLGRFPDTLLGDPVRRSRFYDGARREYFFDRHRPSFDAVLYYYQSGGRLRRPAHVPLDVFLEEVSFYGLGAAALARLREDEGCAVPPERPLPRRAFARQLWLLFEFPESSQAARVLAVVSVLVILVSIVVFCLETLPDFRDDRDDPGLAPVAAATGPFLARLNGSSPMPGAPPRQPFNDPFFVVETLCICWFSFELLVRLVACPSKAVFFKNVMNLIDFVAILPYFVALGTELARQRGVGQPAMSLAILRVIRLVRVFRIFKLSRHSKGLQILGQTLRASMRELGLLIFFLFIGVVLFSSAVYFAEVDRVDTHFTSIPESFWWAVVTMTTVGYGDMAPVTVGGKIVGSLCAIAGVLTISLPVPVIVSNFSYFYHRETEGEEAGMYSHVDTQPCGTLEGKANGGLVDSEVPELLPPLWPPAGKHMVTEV

Row | Molecule | AUC calculated from the glucose profiles [1] | AUC of the insulin profiles [1] | Glucose-induced blood glucose increase [1] | IC50 of block of channel currents (HEK-293 cells) [2] | IC50 of block of channel currents (two electrode voltage clamp, Xenopus oocytes) [3]
1 | COc1ccc(Cl)cc1C(=O)NCCc1ccc(S(=O)(=O)NC(=O)NC2CCCCC2)cc1 [glibenclamide] | 79 ± 7 g·min/L | 310 ± 35 ng·min/mL | reduction of the glucose-induced glucose increase | – | –
2 | Conkunitzin-S1 (modifications not checked) KDRPSLCDLPADSGSGTKAEKRIYYNSARKQCLRFDYTGQGGNENNFRRTYDCQRTCLYT | – | – | – | 445 nM | 122 nM
